# Source: ChEMBL document CHEMBL2311440, “Inhibitors of HIV-1 attachment. Part 8: the effect of C7-heteroaryl substitution on the potency, and in vitro and in vivo profiles of indole-based inhibitors” (Bioorg Med Chem Lett, 2013)
# System: not listed separately
# Assay: Cytotoxicity against human HeLa CD4+ CCR5+ cells after 6 days by XTT assay
# Type: cell-based
# Settings: not given
row,SMILES,CC50 at 144 h [nM]
1,O=C(C(=O)N1CCN(C(=O)c2ccccc2)CC1)c1c[nH]c2c(-c3nn[nH]n3)ccc(F)c12,245000
2,O=C(C(=O)N1CCN(C(=O)c2ccccc2)CC1)c1c[nH]c2c(-c3nnc[nH]3)ccc(F)c12,199000
3,O=C(C(=O)N1CCN(C(=O)c2ccccc2)CC1)c1c[nH]c2c(-c3nnco3)ccc(F)c12,> 300000
4,O=C(C(=O)N1CCN(C(=O)c2ccccc2)CC1)c1c[nH]c2c(-c3ncon3)ccc(F)c12,74000
5,O=C(C(=O)N1CCN(C(=O)c2ccccc2)CC1)c1c[nH]c2c(-c3cnc[nH]3)ccc(F)c12,> 300000
6,O=C(C(=O)N1CCN(C(=O)c2ccccc2)CC1)c1c[nH]c2c(-c3cnco3)ccc(F)c12,> 300000
7,O=C(C(=O)N1CCN(C(=O)c2ccccc2)CC1)c1c[nH]c2c(-c3ncco3)ccc(F)c12,192000
8,O=C(C(=O)N1CCN(C(=O)c2ccccc2)CC1)c1c[nH]c2c(-c3nccs3)ccc(F)c12,23000
9,O=C(C(=O)N1CCN(C(=O)c2ccccc2)CC1)c1c[nH]c2c(-c3ccsc3)ccc(F)c12,27000
10,O=C(C(=O)N1CCN(C(=O)c2ccccc2)CC1)c1c[nH]c2c(-c3cccs3)ccc(F)c12,5300
11,O=C(C(=O)N1CCN(C(=O)c2ccccc2)CC1)c1c[nH]c2c(-c3cccnc3)ccc(F)c12,10000
12,O=C(C(=O)N1CCN(C(=O)c2ccccc2)CC1)c1c[nH]c2c(-c3ccccn3)ccc(F)c12,17000
13,COc1ccc(-c2ccc(F)c3c(C(=O)C(=O)N4CCN(C(=O)c5ccccc5)CC4)c[nH]c23)cc1,21000
14,O=C(C(=O)N1CCN(C(=O)c2ccccc2)CC1)c1c[nH]c2c(-c3ccccc3)ccc(F)c12,6800
15,O=C(C(=O)N1CCN(C(=O)c2ccccc2)CC1)c1c[nH]c2ccccc12,275000

# System: not listed separately
# Assay: Antiviral activity against T-tropic HIV1 BRU virus by cell culture based assay
# Type: functional, Human immunodeficiency virus type 1 (BRU ISOLATE)
# Settings: Human immunodeficiency virus 1
row,SMILES,EC50 [nM]
1,O=C(C(=O)N1CCN(C(=O)c2ccccc2)CC1)c1c[nH]c2c(-c3nn[nH]n3)ccc(F)c12,6.38
2,O=C(C(=O)N1CCN(C(=O)c2ccccc2)CC1)c1c[nH]c2c(-c3ncon3)ccc(F)c12,3.38

# System: Human immunodeficiency virus 1
# Assay: Antiviral activity against HIV1 JRFL pseudotyped virus infected in HeLa CD4+ CCR5+ cells by single-cycle viral infectivity assay
# Type: functional, organism-based
# Settings: Human immunodeficiency virus 1, JRFL
row,SMILES,EC50 [nM]
1,O=C(C(=O)N1CCN(C(=O)c2ccccc2)CC1)c1c[nH]c2c(-c3nnco3)ccc(F)c12,0.05
2,O=C(C(=O)N1CCN(C(=O)c2ccccc2)CC1)c1c[nH]c2c(-c3cnc[nH]3)ccc(F)c12,0.06
3,O=C(C(=O)N1CCN(C(=O)c2ccccc2)CC1)c1c[nH]c2c(-c3ncco3)ccc(F)c12,0.05
4,O=C(C(=O)N1CCN(C(=O)c2ccccc2)CC1)c1c[nH]c2c(-c3nccs3)ccc(F)c12,0.0067
5,O=C(C(=O)N1CCN(C(=O)c2ccccc2)CC1)c1c[nH]c2c(-c3cccs3)ccc(F)c12,0.06
6,COc1ccc(-c2ccc(F)c3c(C(=O)C(=O)N4CCN(C(=O)c5ccccc5)CC4)c[nH]c23)cc1,0.04
7,O=C(C(=O)N1CCN(C(=O)c2ccccc2)CC1)c1c[nH]c2c(-c3ccccc3)ccc(F)c12,0.43
8,O=C(C(=O)N1CCN(C(=O)c2ccccc2)CC1)c1c[nH]c2ccccc12,153

# More lines, in order of falling EC50, values ahead:
row,EC50 [nM],SMILES
1,0.12,O=C(C(=O)N1CCN(C(=O)c2ccccc2)CC1)c1c[nH]c2c(-c3ccccn3)ccc(F)c12
2,0.08,O=C(C(=O)N1CCN(C(=O)c2ccccc2)CC1)c1c[nH]c2c(-c3nn[nH]n3)ccc(F)c12
3,0.06,O=C(C(=O)N1CCN(C(=O)c2ccccc2)CC1)c1c[nH]c2c(-c3cccnc3)ccc(F)c12
4,0.05,O=C(C(=O)N1CCN(C(=O)c2ccccc2)CC1)c1c[nH]c2c(-c3ncon3)ccc(F)c12
5,0.03,O=C(C(=O)N1CCN(C(=O)c2ccccc2)CC1)c1c[nH]c2c(-c3nnc[nH]3)ccc(F)c12
6,0.01,O=C(C(=O)N1CCN(C(=O)c2ccccc2)CC1)c1c[nH]c2c(-c3ccsc3)ccc(F)c12
7,0.0054,O=C(C(=O)N1CCN(C(=O)c2ccccc2)CC1)c1c[nH]c2c(-c3cnco3)ccc(F)c12

# System: not listed separately
# Assay: Cmax in rat at 5 mg/kg, po
# Type: ADME, organism-based
# Design: dose 5 mg/kg, route oral
# Settings: in vivo
row,SMILES,Cmax [µg/mL]
1,O=C(C(=O)N1CCN(C(=O)c2ccccc2)CC1)c1c[nH]c2c(-c3nn[nH]n3)ccc(F)c12,0.095
2,O=C(C(=O)N1CCN(C(=O)c2ccccc2)CC1)c1c[nH]c2c(-c3nnc[nH]3)ccc(F)c12,0.369
3,O=C(C(=O)N1CCN(C(=O)c2ccccc2)CC1)c1c[nH]c2c(-c3ncon3)ccc(F)c12,2.61
4,O=C(C(=O)N1CCN(C(=O)c2ccccc2)CC1)c1c[nH]c2c(-c3cnco3)ccc(F)c12,0.444

# System: Human immunodeficiency virus 1
# Assay: Antiviral activity against T-tropic HIV1 NL4-3 virus by cell culture based assay
# Type: functional, organism-based
# Settings: Human immunodeficiency virus 1, NL4-3
row,SMILES,EC50 [nM]
1,O=C(C(=O)N1CCN(C(=O)c2ccccc2)CC1)c1c[nH]c2c(-c3nn[nH]n3)ccc(F)c12,9.41
2,O=C(C(=O)N1CCN(C(=O)c2ccccc2)CC1)c1c[nH]c2c(-c3ncon3)ccc(F)c12,8.66

# System: not listed separately
# Assay: Clearance in rat at 1 mg/kg, iv
# Type: ADME, organism-based
# Design: dose 1 mg/kg, route intravenous
# Settings: in vivo
row,SMILES,clearance [L/h/kg]
1,O=C(C(=O)N1CCN(C(=O)c2ccccc2)CC1)c1c[nH]c2c(-c3nn[nH]n3)ccc(F)c12,0.186
2,O=C(C(=O)N1CCN(C(=O)c2ccccc2)CC1)c1c[nH]c2c(-c3nnc[nH]3)ccc(F)c12,0.222
3,O=C(C(=O)N1CCN(C(=O)c2ccccc2)CC1)c1c[nH]c2c(-c3ncon3)ccc(F)c12,0.234
4,O=C(C(=O)N1CCN(C(=O)c2ccccc2)CC1)c1c[nH]c2c(-c3cnco3)ccc(F)c12,1.02

# System: not listed separately
# Assay: Half life in human liver microsomes
# Type: ADME, Microsome
# Settings: not given
row,SMILES,half-life [min]
1,O=C(C(=O)N1CCN(C(=O)c2ccccc2)CC1)c1c[nH]c2c(-c3nnco3)ccc(F)c12,10
2,O=C(C(=O)N1CCN(C(=O)c2ccccc2)CC1)c1c[nH]c2c(-c3cnc[nH]3)ccc(F)c12,16

# Second part, the compound after the results:
row,half-life [min],SMILES
1,> 200,O=C(C(=O)N1CCN(C(=O)c2ccccc2)CC1)c1c[nH]c2c(-c3nn[nH]n3)ccc(F)c12
2,17,O=C(C(=O)N1CCN(C(=O)c2ccccc2)CC1)c1c[nH]c2c(-c3ncon3)ccc(F)c12
3,32,O=C(C(=O)N1CCN(C(=O)c2ccccc2)CC1)c1c[nH]c2c(-c3nnc[nH]3)ccc(F)c12
4,2.9,O=C(C(=O)N1CCN(C(=O)c2ccccc2)CC1)c1c[nH]c2c(-c3cnco3)ccc(F)c12

# System: not listed separately
# Assay: Safety index, ratio fo CC50 for human HeLa CD4+ CCR5+ cells to EC50 for HIV1 JRFL
# Type: toxicity
# Settings: read-out: Ratio CC50/EC50
row,SMILES,selectivity ratio
1,O=C(C(=O)N1CCN(C(=O)c2ccccc2)CC1)c1c[nH]c2c(-c3ncon3)ccc(F)c12,1500

# System: not listed separately
# Assay: Oral bioavailability in rat at 5 mg/kg
# Type: ADME, organism-based
# Settings: in vivo
row,SMILES,bioavailability [%]
1,O=C(C(=O)N1CCN(C(=O)c2ccccc2)CC1)c1c[nH]c2c(-c3nn[nH]n3)ccc(F)c12,2.3
2,O=C(C(=O)N1CCN(C(=O)c2ccccc2)CC1)c1c[nH]c2c(-c3nnc[nH]3)ccc(F)c12,14
3,O=C(C(=O)N1CCN(C(=O)c2ccccc2)CC1)c1c[nH]c2c(-c3ncon3)ccc(F)c12,89
4,O=C(C(=O)N1CCN(C(=O)c2ccccc2)CC1)c1c[nH]c2c(-c3cnco3)ccc(F)c12,47

# System: not listed separately
# Assay: Half life in rat at 1 mg/kg, iv
# Type: ADME, organism-based
# Design: dose 1 mg/kg, route intravenous
# Settings: in vivo
row,SMILES,half-life [min]
1,O=C(C(=O)N1CCN(C(=O)c2ccccc2)CC1)c1c[nH]c2c(-c3nn[nH]n3)ccc(F)c12,67
2,O=C(C(=O)N1CCN(C(=O)c2ccccc2)CC1)c1c[nH]c2c(-c3nnc[nH]3)ccc(F)c12,187
3,O=C(C(=O)N1CCN(C(=O)c2ccccc2)CC1)c1c[nH]c2c(-c3ncon3)ccc(F)c12,120
4,O=C(C(=O)N1CCN(C(=O)c2ccccc2)CC1)c1c[nH]c2c(-c3cnco3)ccc(F)c12,65

# System: not listed separately
# Assay: Permeability across human Caco2 cells at pH 6.5
# Type: ADME, cell-based
# Settings: Caco-2, pH 6.5, read-out: permeability
row,SMILES,Papp [nm/s]
1,O=C(C(=O)N1CCN(C(=O)c2ccccc2)CC1)c1c[nH]c2c(-c3nn[nH]n3)ccc(F)c12,17
2,O=C(C(=O)N1CCN(C(=O)c2ccccc2)CC1)c1c[nH]c2c(-c3nnc[nH]3)ccc(F)c12,19
3,O=C(C(=O)N1CCN(C(=O)c2ccccc2)CC1)c1c[nH]c2c(-c3ncon3)ccc(F)c12,> 300
4,O=C(C(=O)N1CCN(C(=O)c2ccccc2)CC1)c1c[nH]c2c(-c3cnc[nH]3)ccc(F)c12,37
5,O=C(C(=O)N1CCN(C(=O)c2ccccc2)CC1)c1c[nH]c2c(-c3cnco3)ccc(F)c12,122

# System: Human immunodeficiency virus 1
# Assay: Antiviral activity against M-tropic HIV1 Bal virus by cell culture based assay
# Type: functional, organism-based
# Settings: Human immunodeficiency virus 1, Bal
row,SMILES,EC50 [nM]
1,O=C(C(=O)N1CCN(C(=O)c2ccccc2)CC1)c1c[nH]c2c(-c3nn[nH]n3)ccc(F)c12,0.37
2,O=C(C(=O)N1CCN(C(=O)c2ccccc2)CC1)c1c[nH]c2c(-c3ncon3)ccc(F)c12,7.61
